Results published in PMC4418665, “Cyclization of the Urokinase Receptor-Derived Ser-Arg-Ser-Arg-Tyr Peptide Generates a Potent Inhibitor of Trans-Endothelial Migration of Monocytes” (PLoS ONE, 2015).
Peptide text beside a SMILES is read from it.

Molecular target: T1, FPR1 (Homo sapiens, UniProt P21462)
T1 sequence (P21462 1-350): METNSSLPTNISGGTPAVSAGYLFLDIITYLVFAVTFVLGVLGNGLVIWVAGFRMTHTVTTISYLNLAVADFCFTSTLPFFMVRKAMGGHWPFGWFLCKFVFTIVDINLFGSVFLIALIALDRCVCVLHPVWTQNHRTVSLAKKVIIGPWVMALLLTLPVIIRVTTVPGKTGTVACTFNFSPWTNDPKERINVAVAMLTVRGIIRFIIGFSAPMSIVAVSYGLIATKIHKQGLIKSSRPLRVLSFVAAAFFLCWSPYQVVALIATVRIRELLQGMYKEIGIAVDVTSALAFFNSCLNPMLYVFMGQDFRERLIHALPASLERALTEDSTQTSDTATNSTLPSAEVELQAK
Assay: Agonist-dependent FPR1 internalization at 37°C, fluorescence microscopy, RBL-2H3/ETFR cells
Format: cell-based
Parameters: expressed in transfected cells
Conditions: 100 nM peptide 30 min at 37°C, then 10 nM FITC-fMLF 30 min at 37°C
Description: We have previously documented that SRSRY competes with the bacterial-derived N-formyl-methionyl-leucyl-phenylalanine peptide (fMLF) for binding to FPR type 1 (FPR1) and that both SRSRY and fMLF promote cell migration by triggering FPR1 internalization. […] Quantification of cell-associated fluorescence was assessed by reading cell lysates with a fluorescence plate reader. RBL-2H3 cells lack FPR1, thus they display very low uptake that was not saturable with unlabeled fMLF (Fig 2A). […] To evaluate the effect of [SRSRY] on agonist-dependent FPR1 internalization, binding experiments were performed at 37°C. […] Thus, we assessed whether [SRSRY] elicits effects on fMLF-directed cell migration. RBL-2H3/ETFR cell migration toward 10 nM fMLF was monitored in real-time for 4 hours as Cell Index changes due to the adhesion of migrating cells to microelectrodes using the xCELLigence RTCA technology as previously described. […]
Fig 2 Both linear and cyclic SRSRY peptides bind to FPR1. […] Fluorimetric measurement of cell-associated fluorescence was assed using 485 nm excitation and 535 nm emission filters. Data are expressed as a percentage of the fluorescence associated to RBL-2H3 cells exposed to FITC-fMLF alone (CTL = 100%) and represent a mean ± SD from triplicates. *Statistical significance (t-test) against None with p<0.001. […] Cell migration of RBL-2H3/ETFR cells monitored by the xCELLigence system. […]

| SMILES | agonist-dependent FPR1 internalization in RBL-2H3/ETFR cells |
| --- | --- |
| N=C(N)NCCC[C@H](NC(=O)[C@H](CO)NC(=O)[C@H](CCCNC(=N)N)NC(=O)[C@@H](N)CO)C(=O)N[C@@H](Cc1ccc(O)cc1)C(N)=O [SRSRY, H-Ser-Arg-Ser-Arg-Tyr-NH2] (H-SRSRY-NH2) | prevented |
| N=C(N)NCCC[C@@H]1NC(=O)[C@H](CO)NC(=O)[C@H](Cc2ccc(O)cc2)NC(=O)[C@H](CCCNC(=N)N)NC(=O)[C@H](CO)NC1=O [[SRSRY], [Ser-Arg-Ser-Arg-Tyr]] (cyclo(RSRYS)) | prevented agonist-dependent FPR1 internalization |
